Test results from ChEMBL document CHEMBL1649249, “Antifungal activity of micafungin in serum” (Antimicrob Agents Chemother, 2009).
*1 amine or outer side, *2 acyl side, *3 side chain or, on linkers, in order; H or OH if unused. Where a SMILES comes first, the peptide text is derived from it. Bridges are numbered along the chain shown (N, C = ends). [ ]: non-standard residue; d: D form. The star is where a group is joined. hTyr(3S-OH,4S-OH,3'-OSO3H) = N[C@H](C(=O)O)[C@H](O)[C@@H](O)c1ccc(O)c(OS(=O)(=O)O)c1; Orn(4R-OH,5R-OH) = O=C([C@H](C[C@@H](O)[C@@H](O)N[*:3])N[*:1])[*:2]; Pro(3S-OH,4S-Me) = C[C@H]1CN[C@H](C(=O)O)[C@H]1O; X1 = CCCCCOc1ccc(-c2cc(-c3ccc(C(=O)*)cc3)no2)cc1; Gln(3R-OH) = NC(=O)C[C@@H](O)[C@H](N)C(=O)O; Hyp = O=C(O)[C@@H]1C[C@@H](O)CN1

Assays:
[1] = Cmax in patient with acute myeloid leukemia infected with Candida albicans FP633 at 1.1 mg/kg administered once daily after 8 days by HPLC; format: ADME, organism-based; parameters: dose 1.1 mg/kg; conditions: human, in vivo
Serum = assay: Protein binding in human serum; format: ADME, cell-free
[2] = Ratio of MIC for Candida albicans FP633 collected from peak serum sample on day 8 from patient with acute myeloid leukemia at 1.1 mg/kg in presence of human serum to Cmax for patient with acute myeloid leukemia at 1.1 mg/kg; format: functional
[3] = Ratio of MIC for Candida albicans FP633 collected from peak serum sample on day 17 from patient with acute lymphoblastic leukemia at 1.2 mg/kg to Cmax for patient with acute lymphoblastic leukemia at 1.2 mg/kg; format: functional
Candida albicans [4] = assay: Antifungal activity against Candida albicans FP633 collected from peak serum sample on day 12 patient with malignant lymphoma at 2.6 mg/kg by disk diffusion method; format: functional
[5] = Ratio of MIC for Candida albicans FP633 collected from peak serum sample on day 17 from patient with acute lymphoblastic leukemia at 1.2 mg/kg in presence of human serum to Cmax for patient with acute lymphoblastic leukemia at 1.2 mg/kg; format: functional
Candida albicans [6] = assay: Antifungal activity against Candida albicans FP633 collected from trough serum sample on day 15 from patient with acute myeloid leukemia at 1.1 mg/kg by disk diffusion method in presence of human serum; format: functional
[7] = Ratio of MIC for Candida albicans FP633 collected from peak serum sample on day 15 from patient with acute lymphoblastic leukemia at 1.2 mg/kg in presence of human serum to Cmax for patient with acute lymphoblastic leukemia at 1.2 mg/kg; format: functional
[8] = Cmax in patient with malignant lymphoma infected with Candida albicans FP633 at 2.6 mg/kg administered once daily after 12 days by HPLC; format: ADME, organism-based; parameters: dose 2.6 mg/kg; conditions: human, in vivo
[9] = Ratio of MIC for Candida albicans FP633 collected from peak serum sample on day 15 from patient with acute myeloid leukemia at 1.1 mg/kg in presence of human serum to Cmax for patient with acute myeloid leukemia at 1.1 mg/kg; format: functional
[10] = Cmax in patient with myelodysplastic syndrome infected with Candida albicans FP633 at 1.4 mg/kg administered once daily after 45 days by HPLC; format: ADME, organism-based; parameters: dose 1.4 mg/kg; conditions: human, in vivo
[11] = Ratio of MIC for Candida albicans FP633 collected from peak serum sample on day 43 from patient with myelodysplastic syndrome at 3.9 mg/kg in presence of human serum to Cmax for patient with myelodysplastic syndrome at 3.9 mg/kg; format: functional
[12] = Ratio of MIC for Candida albicans FP633 collected from trough serum sample on day 15 from patient with acute lymphoblastic leukemia at 1.2 mg/kg in presence of human serum to Cmax for patient with acute lymphoblastic leukemia at 1.2 mg/kg; format: functional
[13] = Ratio of MIC for Candida albicans FP633 collected from trough serum sample on day 15 from patient with acute myeloid leukemia at 1.1 mg/kg to Cmax for patient with acute myeloid leukemia at 1.1 mg/kg; format: functional
Candida albicans [14] = assay: Antifungal activity against Candida albicans FP633 collected from peak serum sample on day 17 from patient with acute lymphoblastic leukemia at 1.2 mg/kg by disk diffusion method; format: functional
Candida albicans [15] = assay: Antifungal activity against Candida albicans FP633 collected from peak serum sample on day 15 from patient with acute myeloid leukemia at 1.1 mg/kg by disk diffusion method in presence of human serum; format: functional
[16] = Ratio of MIC for Candida albicans FP633 collected from trough serum sample on day 8 from patient with acute myeloid leukemia at 1.1 mg/kg in presence of human serum to Cmax for patient with acute myeloid leukemia at 1.1 mg/kg; format: functional
[17] = Cmax in patient with acute lymphoblastic leukemia infected with Candida albicans FP633 at 1.2 mg/kg administered once daily after 15 days by HPLC; format: ADME, organism-based; parameters: dose 1.2 mg/kg; conditions: human, in vivo
[18] = Cmax in patient with malignant lymphoma infected with Candida albicans FP633 at 3.9 mg/kg administered once daily after 10 days by HPLC; format: ADME, organism-based; parameters: dose 3.9 mg/kg; conditions: human, in vivo
Candida albicans [19] = assay: Antifungal activity against Candida albicans FP633 collected from trough serum sample on day 15 from patient with acute lymphoblastic leukemia at 1.2 mg/kg by disk diffusion method; format: functional
[20] = Ratio of MIC for Candida albicans FP633 collected from trough serum sample on day 8 from patient with acute myeloid leukemia at 1.1 mg/kg to Cmax for patient with acute myeloid leukemia at 1.1 mg/kg; format: functional
[21] = Cmax in patient with malignant lymphoma infected with Candida albicans FP633 at 4.8 mg/kg administered once daily after 43 days by HPLC; format: ADME, organism-based; parameters: dose 4.8 mg/kg; conditions: human, in vivo
Candida albicans [22] = assay: Antifungal activity against Candida albicans FP633 collected from peak serum sample on day 17 from patient with acute lymphoblastic leukemia at 1.2 mg/kg by disk diffusion method in presence of human serum; format: functional
[23] = Ratio of MIC for Candida albicans FP633 collected from peak serum sample on day 43 from patient with malignant lymphoma at 4.8 mg/kg in presence of human serum to Cmax for patient with malignant lymphoma at 4.8 mg/kg; format: functional
Candida albicans [24] = assay: Antifungal activity against Candida albicans FP633 collected from peak serum sample on day 43 from patient with myelodysplastic syndrome at 1.4 mg/kg by disk diffusion method; format: functional
Candida albicans [25] = assay: Antifungal activity against Candida albicans FP633 collected from peak serum sample on day 43 patient with malignant lymphoma at 4.8 mg/kg by disk diffusion method; format: functional
[26] = Ratio of MIC for Candida albicans FP633 collected from peak serum sample on day 43 from patient with malignant lymphoma at 4.8 mg/kg to Cmax for patient with malignant lymphoma at 4.8 mg/kg; format: functional
[27] = Cmax in patient with acute lymphoblastic leukemia infected with Candida albicans FP633 at 1.2 mg/kg administered once daily after 17 days by HPLC; format: ADME, organism-based; parameters: dose 1.2 mg/kg; conditions: human, in vivo
Candida albicans [28] = assay: Antifungal activity against Candida albicans FP633 collected from peak serum sample on day 8 from patient with acute myeloid leukemia at 1.1 mg/kg by disk diffusion method; format: functional
Candida albicans [29] = assay: Antifungal activity against Candida albicans FP633 collected from peak serum sample on day 15 from patient with acute myeloid leukemia at 1.1 mg/kg by disk diffusion method; format: functional
[30] = Ratio of MIC for Candida albicans FP633 collected from peak serum sample on day 43 from patient with myelodysplastic syndrome at 3.9 mg/kg to Cmax for patient with myelodysplastic syndrome at 3.9 mg/kg; format: functional
[31] = Cmax in patient with malignant lymphoma infected with Candida albicans FP633 at 5.8 mg/kg administered once daily after 8 days by HPLC; format: ADME, organism-based; parameters: dose 5.8 mg/kg; conditions: human, in vivo
Candida albicans [32] = assay: Antifungal activity against Candida albicans FP633 collected from peak serum sample on day 12 patient with malignant lymphoma at 2.6 mg/kg by disk diffusion method in presence of human serum; format: functional
[33] = Ratio of MIC for Candida albicans FP633 collected from peak serum sample on day 15 from patient with acute myeloid leukemia at 1.1 mg/kg to Cmax for patient with acute myeloid leukemia at 1.1 mg/kg; format: functional
Candida albicans [34] = assay: Antifungal activity against Candida albicans FP633 collected from trough serum sample on day 8 from patient with acute myeloid leukemia at 1.1 mg/kg by disk diffusion method in presence of human serum; format: functional
[35] = Ratio of MIC for Candida albicans FP633 collected from peak serum sample on day 12 from patient with malignant lymphoma at 2.6 mg/kg in presence of human serum to Cmax for patient with malignant lymphoma at 2.6 mg/kg; format: functional
Candida albicans [36] = assay: Antifungal activity against Candida albicans FP633 collected from peak serum sample on day 15 from patient with acute lymphoblastic leukemia at 1.2 mg/kg by disk diffusion method in presence of human serum; format: functional
[37] = Ratio of MIC for Candida albicans FP633 collected from peak serum sample on day 8 from patient with acute myeloid leukemia at 1.1 mg/kg to Cmax for patient with acute myeloid leukemia at 1.1 mg/kg; format: functional
Candida albicans [38] = assay: Antifungal activity against Candida albicans FP633 collected from peak serum sample on day 15 from patient with acute lymphoblastic leukemia at 1.2 mg/kg by disk diffusion method; format: functional
[39] = Ratio of MIC for Candida albicans FP633 collected from peak serum sample on day 12 from patient with malignant lymphoma at 2.6 mg/kg to Cmax for patient with malignant lymphoma at 2.6 mg/kg; format: functional
[40] = Cmax in patient with acute myeloid leukemia infected with Candida albicans FP633 at 1.1 mg/kg administered once daily after 15 days by HPLC; format: ADME, organism-based; parameters: dose 1.1 mg/kg; conditions: human, in vivo
[41] = Ratio of MIC for Candida albicans FP633 collected from peak serum sample on day 15 from patient with acute lymphoblastic leukemia at 1.2 mg/kg to Cmax for patient with acute lymphoblastic leukemia at 1.2 mg/kg; format: functional
Candida albicans [42] = assay: Antifungal activity against Candida albicans FP633 collected from peak serum sample on day 43 patient with malignant lymphoma at 4.8 mg/kg by disk diffusion method in presence of human serum; format: functional
Candida albicans [43] = assay: Antifungal activity against Candida albicans FP633 collected from peak serum sample on day 8 from patient with acute myeloid leukemia at 1.1 mg/kg by disk diffusion method in presence of human serum; format: functional
Candida albicans [44] = assay: Antifungal activity against Candida albicans FP633 collected from trough serum sample on day 15 from patient with acute lymphoblastic leukemia at 1.2 mg/kg by disk diffusion method in presence of human serum; format: functional
[45] = Ratio of MIC for Candida albicans FP633 collected from trough serum sample on day 15 from patient with acute lymphoblastic leukemia at 1.2 mg/kg to Cmax for patient with acute lymphoblastic leukemia at 1.2 mg/kg; format: functional
[46] = Ratio of MIC for Candida albicans FP633 collected from trough serum sample on day 15 from patient with acute myeloid leukemia at 1.1 mg/kg in presence of human serum to Cmax for patient with acute myeloid leukemia at 1.1 mg/kg; format: functional
Candida albicans [47] = assay: Antifungal activity against Candida albicans FP633 collected from trough serum sample on day 8 from patient with acute myeloid leukemia at 1.1 mg/kg by disk diffusion method; format: functional
Candida albicans [48] = assay: Antifungal activity against Candida albicans FP633 collected from trough serum sample on day 15 from patient with acute myeloid leukemia at 1.1 mg/kg by disk diffusion method; format: functional
Candida albicans [49] = assay: Antifungal activity against Candida albicans FP633 collected from peak serum sample on day 43 from patient with myelodysplastic syndrome at 1.4 mg/kg by disk diffusion method in presence of human serum; format: functional
Candida albicans [50] = assay: Antimicrobial activity against Candida albicans FP633 in presence of heat inactivated mouse serum; format: functional

`CCCCCOc1ccc(-c2cc(-c3ccc(C(=O)N[C@H]4C[C@@H](O)[C@@H](O)NC(=O)[C@@H]5[C@@H](O)[C@@H](C)CN5C(=O)[C@H]([C@H](O)CC(N)=O)NC(=O)[C@H]([C@H](O)[C@@H](O)c5ccc(O)c(OS(=O)(=O)O)c5)NC(=O)[C@@H]5C[C@@H](O)CN5C(=O)[C@H]([C@@H](C)O)NC4=O)cc3)no2)cc1` [MICAFUNGIN] (X1-[Orn(4R-OH,5R-OH)]T[Hyp][hTyr(3S-OH,4S-OH,3'-OSO3H)][Gln(3R-OH)][Pro(3S-OH,4S-Me)]; lactam 1-C) gave a Cmax [1] of 8400 ng/mL, a PB (Serum) of 99.8% and a Ratio [2] of 96. For the same compound, the Ratio [3] was 44, the Activity (Candida albicans [4]) was 6 µg/mL and the Ratio [5] was 91. It also gave an Activity (Candida albicans [6]) of 1.7 µg/mL, a Ratio [7] of 109 and a Cmax [8] of 16400 ng/mL. The Ratio [9] was 92, the Cmax [10] was 6700 ng/mL and the Ratio [11] was 63. The Ratio [12] was 71, the Ratio [13] was 32 and the Activity (Candida albicans [14]) was 2.9 µg/mL. The Activity (Candida albicans [15]) was 5.2 µg/mL, the Ratio [16] was 78 and the Cmax [17] was 6400 ng/mL. It also gave a Cmax [18] of 34200 ng/mL, an Activity (Candida albicans [19]) of 0.9 µg/mL and a Ratio [20] of 42. It also gave a Cmax [21] of 37100 ng/mL, an Activity (Candida albicans [22]) of 5.9 µg/mL and a Ratio [23] of 94. The Activity (Candida albicans [24]) was 2.5 µg/mL, the Activity (Candida albicans [25]) was 14.1 µg/mL and the Ratio [26] was 38. For the same compound, the Cmax [27] was 6500 ng/mL, the Activity (Candida albicans [28]) was 3.8 µg/mL and the Activity (Candida albicans [29]) was 2.5 µg/mL. It also gave a Ratio [30] of 38, a Cmax [31] of 33600 ng/mL and an Activity (Candida albicans [32]) of 22.1 µg/mL. The Ratio [33] was 45, the Activity (Candida albicans [34]) was 2.1 µg/mL and the Ratio [35] was 135. The Activity (Candida albicans [36]) was 7 µg/mL, the Ratio [37] was 42 and the Activity (Candida albicans [38]) was 3.3 µg/mL. It also gave a Ratio [39] of 37, a Cmax [40] of 5600 ng/mL and a Ratio [41] of 52. The Activity (Candida albicans [42]) was 34.8 µg/mL, the Activity (Candida albicans [43]) was 8.1 µg/mL and the Activity (Candida albicans [44]) was 1.6 µg/mL. The Ratio [45] was 40, the Ratio [46] was 58 and the Activity (Candida albicans [47]) was 1.1 µg/mL. It also gave an Activity (Candida albicans [48]) of 1 µg/mL, an Activity (Candida albicans [49]) of 4.2 µg/mL and an MIC (Candida albicans [50]) of 1 µg/mL.
